Data taken from patent US20230063457A1, “DNA-PK INHIBITING COMPOUNDS” (Provincial Health Services Authority, priority 2019, published 2023).

What follows are compounds tested against DNA-PK kinase (Homo sapiens, UniProt P78527) (assay: Inhibition of DNA-PK kinase activity (ADP-Glo)). Conditions: averaged values over all measurements on all batches; 150 μM ATP, 1 hour at 25° C.
Format: biochemical
Description: Inhibition of DNA-PK Kinase Activity Assay buffer was 50 mM Hepes pH 7.5 containing 0.1 mg/ml BSA (albumin from bovine serum), 50 μM DTT (dithiothreitol), 20 mM MgCl2 and 10 μg/ml calf thymus DNA (activation buffer). Kinase reaction was carried out in OptiPlate 384 plates (PerkinElmer 6007299). All compounds tested were dissolved in dimethyl sulfoxide (DMSO) and further dilutions were made in assay buffer. Final DMSO concentration was 1% (v/v). Pre-incubation consisted of compound (1% DMSO in control and blank wells) and 24 ng/well DNA-PK kinase to allow the compounds to bind the enzyme (with buffer in the blank wells) for 15 minutes; after this time 150 μM Adenosine-5′-triphosphate (ATP) and 0.2 μg/μl DNA-PK substrate were added to commence the kinase reaction. Incubations were carried out for 1 hour at 25° C. Kinase activity was determined by using ADP-Glo™ reagent from Promega according to the manufacturer's instructions. The light generated was measured using a luminometer (EnVision, PerkinElmer). Signal obtained in the wells containing blank samples was subtracted from all other wells and IC50 values were determined by fitting a sigmoidal curve to % inhibition of control versus Log10 compound concentration.

| SMILES | IC50 [nM] |
| --- | --- |
| c1ccc(NCC2CCN(c3nc(N4CCOCC4)cc4ncccc34)CC2)cc1 [Example 138] | 501 |
| C[C@@H]1CN(c2ncn[nH]2)CC[C@@H]1Oc1nc(N2CCOCC2)cc2ncccc12 (single isomer, unassigned) [Parent compound 160] | 493 |
| Cc1ccnc(NCC2CCN(c3nc(N4CCOCC4)cc4ncccc34)CC2)c1 [Example 134] | 155 |
| c1cnc2cc(N3CCOCC3)nc(N3CCNCC3)c2c1 [Example 95] | 5440 |
| Oc1cnc2c(Cl)c(N3CCOCC3)nc(O[C@H]3CC[C@@H](n4ccnc4)CC3)c2c1 [Parent compound 172] | 242 |
| c1cnc(N2CC3(CCN(c4nc(N5CCOCC5)cc5ncccc45)C3)C2)nc1 [Example 34] | 588 |
| c1cnc2cc(N3CCOCC3)nc(N3CCC(c4ncc[nH]4)CC3)c2c1 [Example 86] | 223 |
| c1cnc(NC2CCCN(c3nc(N4CCOCC4)cc4ncccc34)C2)nc1 (stereo not shown) [Example 31] | 492 |
| N#Cc1cc(Br)cnc1NCC1CCN(c2nc(N3CCOCC3)cc3ncccc23)CC1 [Example 125] | 504 |
| O=C(O)c1ccnc(NCC2CCN(c3nc(N4CCOCC4)cc4ncccc34)CC2)n1 [Example 110] | 88 |
| CC1(CNc2ncccn2)CCN(c2nc(N3CCOCC3)cc3ncccc23)C1 (stereo not shown) [Example 25] | 224 |
| O=C(Nc1ncccn1)C1CCN(c2nc(N3CCOCC3)cc3ncccc23)CC1 [Example 26] | 226 |
| CN(C)C(=O)N1CC(COc2nc(N3CCOCC3)cc3ncccc23)C1 [Parent compound 149] | 244 |
| COc1nc(NCC2CCN(c3nc(N4CCOCC4)cc4ncccc34)CC2)ncc1Cl [Example 124] | 247 |
| c1cnc2cc(N3CCOCC3)nc(OC3CCNCC3)c2c1 [Example 89] | 361 |
| COc1cccnc1NCC1CCN(c2nc(N3CCOCC3)cc3ncccc23)CC1 [Example 137] | 457 |
| c1cnc(NCC2CCCN(c3nc(N4CCOCC4)cc4ncccc34)C2)nc1 (stereo not shown) [Example 36] | 949 |
| CN(C)CC1CCN(c2nc(N3CCOCC3)cc3ncccc23)CC1 [Parent compound 145] | 3440 |
| c1cnc2cc(N3CCOCC3)nc(N3CCCCC3)c2c1 [Example 32] | 523 |
| CC(C)(C)OC(=O)N1CCC(Oc2nc(N3CCOCC3)cc3ncccc23)CC1 [Example 48] | 328 |
| OCc1ccnc(NCC2CCN(c3nc(N4CCOCC4)cc4ncccc34)CC2)n1 [Example 116] | 124 |
| CS(=O)(=O)NCC1CCN(c2nc(N3CCOCC3)cc3ncccc23)CC1 [Parent compound 141] | 370 |

More lines, now with the values ahead:

| IC50 [nM] | SMILES |
| --- | --- |
| 340 | c1cnc2cc(N3CCOCC3)nc(N3CCC(CNc4ccncc4)CC3)c2c1 [Example 136] |
| 126 | Nc1ccnc(NCC2CCN(c3nc(N4CCOCC4)cc4ncccc34)CC2)n1 [Parent compound 139] |
| 242 | COc1ccc(COc2nc(N3CCOCC3)cc3ncccc23)cc1 [Example 53] |
| 340 | NC(=O)N1CCC(Oc2nc(N3CCOCC3)cc3ncccc23)CC1 [Parent compound 147] |
| 720 | c1cnc(N2CCC3(C2)CN(c2nc(N4CCOCC4)cc4ncccc24)C3)nc1 [Example 35] |
| 808 | O=S(=O)(NCC1CCN(c2nc(N3CCOCC3)cc3ncccc23)CC1)c1ccc(F)cc1 [Example 142] |
| 232 | N#Cc1cnc(NCC2CCN(c3nc(N4CCOCC4)cc4ncccc34)CC2)nc1Cl [Example 123] |
| 676 | CC(=O)Nc1ccnc(NCC2CCN(c3nc(N4CCOCC4)cc4ncccc34)CC2)n1 [Example 126] |
| 1300 | CC(C)(C)OC(=O)N1CCC2CN(c3nc(N4CCOCC4)cc4ncccc34)CC21 (stereo not shown) [Example 37] |
| 342 | c1cnc(N2CC3CN(c4nc(N5CCOCC5)cc5ncccc45)CC3C2)nc1 (stereo not shown) [Example 28] |
| 2260 | c1cnc(CN2CCC3CN(c4nc(N5CCOCC5)cc5ncccc45)CC32)nc1 (stereo not shown) [Example 42] |
| 169 | C[S+]([O-])[C@H]1CC[C@@H](Oc2nc(N3CCOCC3)cc3ncccc23)CC1 (mixture of isomers) [Example 83] |
